Measurements: US4471131A, “Novel silyl esters of N-phosphonomethylglycine” (Monsanto Company, priority 1983, dated 1984)

How the values were obtained:
Test in all cases: post-emergence herbicidal activity, greenhouse
Format in all cases: in vivo
Downy Brome = test system: Downy Brome
Method in brief: (§1)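 Greenhouse-grown seedlings in soil pans; post-emergence atomizer spray at 2–3 weeks; injury against controls observed twice, near weeks 2 and 4.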

Johnsongrass = details: Table II
Method in brief: as §1

Wild Buckwheat = details: Table III, formulated in anhydrous tetrahydrofuran
Method in brief: as §1

Soybean = details: Table III, formulated in anhydrous tetrahydrofuran
Method in brief: as §1

Yellow Nutsedge = details: Table II
Method in brief: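 Foliar spray, chamber, atomizer; plants 2–3 weeks old in topsoil pans; emulsifier ~0.4% by weight; rates as listed. Rating: injury relative to controls, ~2 and ~4 WAT.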

Rice = details: Table III, formulated in anhydrous tetrahydrofuran
Method in brief: as §1

Common Lambsquarters = test system: Common Lambsquarters
Method in brief: as §1

Hemp Sesbania = details: Table III, formulated in anhydrous tetrahydrofuran
Method in brief: as §1

Cocklebur = test system: Cocklebur
Method in brief: as §1

Morningglory = details: Table II, 2 WAT
Method in brief: as §1

[1] = Table II, 2 WAT, 5.6 kg/h, formulated in anhydrous tetrahydrofuran
[2] = Table II, 2 WAT, 11.2 kg/h, formulated in anhydrous tetrahydrofuran
[3] = Table II, 4 WAT, 11.2 kg/h, formulated in anhydrous tetrahydrofuran
[4] = Table III, 2 WAT, 1.1 kg/h, formulated in anhydrous tetrahydrofuran
[5] = Table III, 2 WAT, 5.6 kg/h, formulated in anhydrous tetrahydrofuran
[6] = Table III, 2 WAT, .28 kg/h, formulated in anhydrous tetrahydrofuran
[7] = Table III, 4 WAT, 5.6 kg/h, formulated in anhydrous tetrahydrofuran
[8] = 2 WAT, 5.6 kg/h, formulated in anhydrous tetrahydrofuran
[9] = 2 WAT, 11.2 kg/h, formulated in anhydrous tetrahydrofuran
[10] = 4 WAT, 11.2 kg/h, formulated in anhydrous tetrahydrofuran

For `CC(C)(C)[Si](OP(=O)(O)CNCC(=O)O)(c1ccccc1)c1ccccc1` [Ex. 5, Glycine, N-((([(1,1-Dimethylethyl)Diphenylsilyl]oxy)-Hydroxyphosphinyl)-Methyl)-,], the “Plant Response Index (J)” value (Downy Brome; Table II, 2 WAT, 5.6 kg/h) was 0 (0-24% inhibition), the “Plant Response Index (J)” value (Downy Brome; [1]) was 0 (0-24% inhibition) and the “Plant Response Index (J)” value (Downy Brome; Table II, 2 WAT, 11.2 kg/h) was 0 (0-24% inhibition). The “Plant Response Index (J)” value (Downy Brome; [2]) was 0 (0-24% inhibition), the “Plant Response Index (J)” value (Downy Brome; Table II, 4 WAT, 5.6 kg/h) was 0 (0-24% inhibition) and the “Plant Response Index (J)” value (Downy Brome; Table II, 4 WAT, 11.2 kg/h) was 0 (0-24% inhibition). The “Plant Response Index (J)” value (Downy Brome; [3]) was 0 (0-24% inhibition), the “Plant Response Index (J)” value (Downy Brome; [4]) was 0 (0-24% inhibition) and the “Plant Response Index (J)” value (Downy Brome; [5]) was 0 (0-24% inhibition). The “Plant Response Index (J)” value (Downy Brome; [6]) was 0 (0-24% inhibition), the “Plant Response Index (J)” value (Downy Brome; [7]) was 0 (0-24% inhibition) and the “Plant Response Index (I)” value (Johnsongrass; 2 WAT, 5.6 kg/h) was 0 (0-24% inhibition). The “Plant Response Index (I)” value (Johnsongrass; [8]) was 0 (0-24% inhibition), the “Plant Response Index (I)” value (Johnsongrass; 2 WAT, 11.2 kg/h) was 1 (25-49% inhibition) and the “Plant Response Index (I)” value (Johnsongrass; [9]) was 0 (0-24% inhibition). The “Plant Response Index (I)” value (Johnsongrass; 4 WAT, 5.6 kg/h) was 1 (25-49% inhibition), the “Plant Response Index (I)” value (Johnsongrass; 4 WAT, 11.2 kg/h) was 2 (50-74% inhibition) and the “Plant Response Index (I)” value (Johnsongrass; [10]) was 0 (0-24% inhibition). The “Plant Response Index (Q)” value (Wild Buckwheat; 2 WAT, 1.1 kg/h) was 0 (0-24% inhibition), the “Plant Response Index (Q)” value (Wild Buckwheat; 2 WAT, 5.6 kg/h) was 1 (25-49% inhibition) and the “Plant Response Index (Q)” value (Wild Buckwheat; 2 WAT, .28 kg/h) was 0 (0-24% inhibition). For the same compound, the “Plant Response Index (Q)” value (Wild Buckwheat; 4 WAT, 5.6 kg/h) was 0 (0-24% inhibition), the “Plant Response Index (L)” value (Soybean; 2 WAT, 1.1 kg/h) was 1 (25-49% inhibition) and the “Plant Response Index (L)” value (Soybean; 2 WAT, 5.6 kg/h) was 1 (25-49% inhibition). For the same compound, the “Plant Response Index (L)” value (Soybean; 2 WAT, .28 kg/h) was 1 (25-49% inhibition), the “Plant Response Index (L)” value (Soybean; 4 WAT, 5.6 kg/h) was 0 (0-24% inhibition) and the “Plant Response Index (G)” value (Yellow Nutsedge; 2 WAT, 5.6 kg/h) was 0 (0-24% inhibition). The “Plant Response Index (G)” value (Yellow Nutsedge; [8]) was 0 (0-24% inhibition), the “Plant Response Index (G)” value (Yellow Nutsedge; 2 WAT, 11.2 kg/h) was 1 (25-49% inhibition) and the “Plant Response Index (G)” value (Yellow Nutsedge; [9]) was 0 (0-24% inhibition). For the same compound, the “Plant Response Index (G)” value (Yellow Nutsedge; 4 WAT, 5.6 kg/h) was 1 (25-49% inhibition), the “Plant Response Index (G)” value (Yellow Nutsedge; 4 WAT, 11.2 kg/h) was 2 (50-74% inhibition) and the “Plant Response Index (G)” value (Yellow Nutsedge; [10]) was 0 (0-24% inhibition). For the same compound, the “Plant Response Index (O)” value (Rice; 2 WAT, 1.1 kg/h) was 0 (0-24% inhibition), the “Plant Response Index (O)” value (Rice; 2 WAT, 5.6 kg/h) was 0 (0-24% inhibition) and the “Plant Response Index (O)” value (Rice; 2 WAT, .28 kg/h) was 0 (0-24% inhibition). The “Plant Response Index (O)” value (Rice; 4 WAT, 5.6 kg/h) was 0 (0-24% inhibition), the “Plant Response Index (E)” value (Common Lambsquarters; Table II, 2 WAT, 5.6 kg/h) was 1 (25-49% inhibition) and the “Plant Response Index (E)” value (Common Lambsquarters; [1]) was 0 (0-24% inhibition). The “Plant Response Index (E)” value (Common Lambsquarters; Table II, 2 WAT, 11.2 kg/h) was 1 (25-49% inhibition), the “Plant Response Index (E)” value (Common Lambsquarters; [2]) was 0 (0-24% inhibition) and the “Plant Response Index (E)” value (Common Lambsquarters; Table II, 4 WAT, 5.6 kg/h) was 0 (0-24% inhibition). The “Plant Response Index (E)” value (Common Lambsquarters; Table II, 4 WAT, 11.2 kg/h) was 2 (50-74% inhibition), the “Plant Response Index (E)” value (Common Lambsquarters; [3]) was 0 (0-24% inhibition) and the “Plant Response Index (E)” value (Common Lambsquarters; [4]) was 0 (0-24% inhibition). For the same compound, the “Plant Response Index (E)” value (Common Lambsquarters; [5]) was 0 (0-24% inhibition), the “Plant Response Index (E)” value (Common Lambsquarters; [6]) was 0 (0-24% inhibition) and the “Plant Response Index (E)” value (Common Lambsquarters; [7]) was 1 (25-49% inhibition). The “Plant Response Index (R)” value (Hemp Sesbania; 2 WAT, 1.1 kg/h) was 0 (0-24% inhibition), the “Plant Response Index (R)” value (Hemp Sesbania; 2 WAT, 5.6 kg/h) was 0 (0-24% inhibition) and the “Plant Response Index (R)” value (Hemp Sesbania; 2 WAT, .28 kg/h) was 0 (0-24% inhibition). The “Plant Response Index (R)” value (Hemp Sesbania; 4 WAT, 5.6 kg/h) was 0 (0-24% inhibition), the “Plant Response Index (B)” value (Cocklebur; Table II, 2 WAT, 5.6 kg/h) was 2 (50-74% inhibition) and the “Plant Response Index (B)” value (Cocklebur; [1]) was 1 (25-49% inhibition). For the same compound, the “Plant Response Index (B)” value (Cocklebur; Table II, 2 WAT, 11.2 kg/h) was 2 (50-74% inhibition), the “Plant Response Index (B)” value (Cocklebur; [2]) was 1 (25-49% inhibition) and the “Plant Response Index (B)” value (Cocklebur; Table II, 4 WAT, 5.6 kg/h) was 1 (25-49% inhibition). For the same compound, the “Plant Response Index (B)” value (Cocklebur; Table II, 4 WAT, 11.2 kg/h) was 2 (50-74% inhibition), the “Plant Response Index (B)” value (Cocklebur; [3]) was 1 (25-49% inhibition) and the “Plant Response Index (B)” value (Cocklebur; [4]) was 1 (25-49% inhibition). For the same compound, the “Plant Response Index (B)” value (Cocklebur; [5]) was 0 (0-24% inhibition), the “Plant Response Index (B)” value (Cocklebur; [6]) was 1 (25-49% inhibition) and the “Plant Response Index (B)” value (Cocklebur; [7]) was 0 (0-24% inhibition). The “Plant Response Index (D)” value (Morningglory; 5.6 kg/h) was 1 (25-49% inhibition), the “Plant Response Index (D)” value (Morningglory; 5.6 kg/h, formulated in anhydrous tetrahydrofuran) was 1 (25-49% inhibition) and the “Plant Response Index (D)” value (Morningglory; 11.2 kg/h) was 1 (25-49% inhibition).
